# Reference: patent US20240300945A1, “CLY SERIES COMPOUND, PREPARATION METHOD THEREFOR AND USE THEREOF IN PREPARATION OF DRUGS” (NANJING WELLBEST PHARMACEUTICAL CO., LTD, priority 2021, published 2024)
# Marks after values point to notes of the source that are not given here.
# Legend:
# [1] = system: skin melanocytes; experiment: Chloasma model of guinea pig: pathomorphological observation of skin melanocytes; type: in vivo; parameters: Average gray level (melanocyte depth): scale not given here; conditions: 0.25% cream once a day, 30 days
# Description: According to the body weight, they were randomly divided into the model control group (applied cream matrix), blank control group (applied cream matrix), CLY-1 treatment group (applied 0.25% CLY-1 cream on the skin), CLY-2 treatment group (0.25% CLY-2 cream on the skin), CLY-3 treatment group (0.25% CLY-3 cream on the skin), CLY-4 treatment group (0.25% CLY-4 cream on the skin), CLY-5 treatment group (0.25% CLY-5 cream on the skin) CLY-8 treatment group (0.25% CLY-8 cream on the skin), CLY-11 treatment group (0.25% CLY-11 cream on the skin), CLY-19 treatment group (0.25% CLY-19 cream on the skin), CLY-36 treatment group (0.25% CLY-36 cream on the skin), CLY-39 treatment group (0.25% CLY-39 cream on the skin), positive treatment group (0.25% arbutin cream on the skin), 6 in each group. In addition to the blank control group, all guinea pigs in the other groups were injected with 20 mg/ml progesterone injection (7.5 mg/kg) into the muscle at the root of the hind leg, once a day, for 30 consecutive days to establish the chloasma model. […] After modeling, the guinea pigs in the model control group, blank control group, each CLY series treatment group, and positive treatment group were treated with corresponding cream on the back for intervention, once a day, for 30 consecutive days.
# Took 1 piece of spare skin tissue from each of all guinea pigs, about 2 cm×1 cm, 10% paraformaldehyde fixation, pathological tissue detection, immunohistochemical staining, observation of melanocyte staining and number, and judgment of positive cells according to the literature: none, 0 point<15%, 0.5 points<30%, 1 point; >30%, 2 points. Observed 5 visual fields in each slice, found out the positive target with brown reaction in the cytoplasm of skin epidermis and accessory epithelial cells, and used BX50F4 Beihang pathological image analysis system for quantitative analysis to obtain the average area, the ratio of target area to statistical field area (areal density), the ratio of target number to statistical field area (number density), the average gray level, the average optical density and the integrated optical density of each guinea pig's 5 visual fields of melanin positive target.
# SPSS16.0 software was used for statistics. The measurement data were expressed by mean±standard deviation (x±s). The comparison between multiple groups was performed by one-way ANOVA, and the comparison between groups was performed by t-test. P<0.05 was statistically significant.
# [2] = system: rabbit ear acne model; experiment: Rabbit ear acne model: macroscopic observation and histological grading; type: in vivo, New Zealand rabbits; conditions: right ear, 10 per group; for number of rabbits with acne histological grading 2+: Grade 2; for number of rabbits with acne histological grading —: Level 0, without acne; for number of rabbits with acne histological grading 1+: Level 1; for number of rabbits with acne histological grading 3+: Level 3
# Description: (1) Preparation method of treatment cream: The excipient matrix components included methyl silicone oil (15%), stearic acid (6%), white vaseline (5%), liquid paraffin (5%), octadecanol (5%), glycerin (20%), alkyl aryl polyglycol ether (1%), fatty alcohol polyoxyethylene ether (1%), […] (1%), ethyl paraben (0.1%), distilled water (about 31-55%), and mixed with appropriate amount of CLY series compounds to form a mixed emulsion. The emulsion matrix used in this embodiment refers to the matrix component after the active ingredient was removed from the emulsion.
# (2) Positive therapeutic drug: 0.1% adapalene gel (Trade name: Differin, produced by Laboratoires Galderma, France).
# (§1) New Zealand rabbits were, according to weights, randomly divided into the model control group (applied cream matrix), positive treatment group (applied Differin on the skin), CLY-1 external treatment group (0.25% CLY-1 cream on the skin), CLY-2 external treatment group (0.25% CLY-2 cream on the skin), CLY-3 external treatment group (0.25% CLY-3 cream on the skin), CLY-4 external treatment group (0.25% CLY-4 cream on the skin) CLY-8 external treatment group (0.25% CLY-8 cream on the skin), CLY-9 external treatment group (0.25% CLY-9 cream on the skin), CLY-11 external treatment group (0.25% CLY-11 cream on the skin), CLY-19 external treatment group (0.25% CLY-19 cream on the skin), CLY-36 external treatment group (0.25% CLY-36 cream on the skin); CLY-1 intravenous injection group (1 mg/kg·d), CLY-2 intravenous injection group (1 mg/kg·d), CLY-3 intravenous injection group (1 mg/kg·d), CLY-4 intravenous injection group (1 mg/kg·d), CLY-8 intravenous injection group (1 mg/kg·d), CLY-9 intravenous injection group (1 mg/kg·d), CLY-11 intravenous injection group (1 mg/kg·d), CLY-19 intravenous injection group (1 mg/kg·d), and CLY-36 intravenous injection group (1 mg/kg·d), with 10 in each group. Took the inner side of the rabbit's right ear for depilation treatment as the observation area, and the inner side of the left ear of all rabbits as their own negative control, and applied 95% alcohol. The inner side of the right ear of the model group and the treatment group were both coated with 2% coal tar (Alfa Aesar China, which used 95% alcohol to prepare 2% coal tar solution), and evenly applied the sterile cotton swab to the opening of the ear duct on the inner side of the rabbit's ear within the range of about 2 cm×2 cm, once a day, 0.5 mL each time, and wiped the previous application site with warm water for 14 consecutive days to establish the acne micro-pigmentation model. Visually observed the changes of local skin, including ear thickness, hardness, roughness, and whether there was a black angle plug at the hair follicle mouth. 18 hours after the last application, the sample was sacrificed and skin was taken. The skin tissue was taken from the application site by using a 5 mm punch, fixed with 10% formaldehyde, embedded in paraffin, and stained with HE. The histopathological observation and analysis were carried out.
# The histological grading criteria of the acne model: 3 grades according to histological grade. […] The tight keratin embolism in the hair follicles causes severe expansion of the hair follicles, obvious hyperplasia of the sebaceous duct epithelium, skin bulges and scars, and some sebaceous glands degenerate “3±”.
# (§2) SPSS16 software was used for statistical analysis. The paired t-test was used for the left and right self-contrast, and the t-test was used for the comparison between the groups, P<0.05 was statistically significant.
# [3] = system: rabbit ear acne model; experiment: Rabbit ear acne model: epidermal thickness, hair follicle area, sebaceous gland diameter; type: in vivo, New Zealand rabbits; conditions: rabbit right ear
# Description: as §1
# The histopathological changes were observed under the microscope, and the thickness of five different epidermises on a slice was measured with the Biomias99 image analysis system, and the average value was calculated; Detected the area of the two hair follicles and the diameter of the four sebaceous glands with the same position and the most complete structure in the four sections, calculated their average values, and then subtracted the data of the left and right external auditory canal of the rabbits in each group to obtain the difference in the thickness of the left and right ear epidermis, the difference in the area of the hair follicles and the difference in the diameter of the sebaceous glands.
# as §2
# [4] = external use (0.25% CLY cream; positive: Differin)
# [5] = intravenous injection 1 mg/kg·d
smiles,measurement,setting,value
Nc1ccccc1-c1ccc(C(=O)N(c2ncccc2Cl)[C@@H]2CCCNC2)cc1 [CLY-39],Area density of melanocytes,[1],0.006 ± 0.003
same,Area of melanocytes,[1],458.06 ± 76.32 um2
same,Average gray level (melanocyte depth),[1],0.47 ± 0.07
same,Average optical density (melanocyte depth),[1],11.06 ± 1.17
same,Integrated optical density (melanocyte depth),[1],101.36 ± 9.72
same,Number density of melanocytes,[1],2.03 ± 1.24
same,Number of melanocytes,[1],1.39 ± 0.32
same,number of rabbits with acne histological grading 2+,[2]; [4],1
same,number of rabbits with acne histological grading 2+,[2]; [5],1
same,number of rabbits with acne histological grading —,[2]; [4],6
same,number of rabbits with acne histological grading —,[2]; [5],7
same,number of rabbits with acne histological grading 1+,[2]; [4],3
same,number of rabbits with acne histological grading 1+,[2]; [5],2
same,number of rabbits with acne histological grading 3+,[2]; [4],0
same,number of rabbits with acne histological grading 3+,[2]; [5],0
same,epidermal thickness,[3]; [4],0.2312 ± 0.0152 mm
same,hair follicle area,[3]; [4],0.2315 ± 0.0662* mm^2
same,sebaceous gland diameter,[3]; [4],0.0716 ± 0.0323 mm
same,epidermal thickness,[3]; [5],0.2056 ± 0.0156 mm
same,hair follicle area,[3]; [5],0.2056 ± 0.0762* mm^2
same,sebaceous gland diameter,[3]; [5],0.0531 ± 0.0306 mm
O=C(c1ccc(-c2ccccc2Cl)cc1)N(c1ncccc1Cl)[C@@H]1CCCNC1 [CLY-36],Area density of melanocytes,[1],0.007 ± 0.004
same,Area of melanocytes,[1],495.32 ± 79.43 um2
same,Average gray level (melanocyte depth),[1],0.47 ± 0.07
same,Average optical density (melanocyte depth),[1],11.53 ± 1.22
same,Integrated optical density (melanocyte depth),[1],97.62 ± 9.91
same,Number density of melanocytes,[1],2.67 ± 1.38
same,Number of melanocytes,[1],1.98 ± 0.59
same,number of rabbits with acne histological grading 2+,[2]; [4],4
same,number of rabbits with acne histological grading 2+,[2]; [5],2
same,number of rabbits with acne histological grading —,[2]; [4],5
same,number of rabbits with acne histological grading —,[2]; [5],7
same,number of rabbits with acne histological grading 1+,[2]; [4],1
same,number of rabbits with acne histological grading 1+,[2]; [5],1
same,number of rabbits with acne histological grading 3+,[2]; [4],0
same,number of rabbits with acne histological grading 3+,[2]; [5],0
same,epidermal thickness,[3]; [4],0.2387 ± 0.0186 mm
same,hair follicle area,[3]; [4],0.2773 ± 0.0945* mm^2
same,sebaceous gland diameter,[3]; [4],0.0805 ± 0.0406 mm
same,epidermal thickness,[3]; [5],0.2282 ± 0.0171 mm
same,hair follicle area,[3]; [5],0.2241 ± 0.0846* mm^2
same,sebaceous gland diameter,[3]; [5],0.0536 ± 0.0319 mm
O=C(c1ccc(-c2ccccc2-c2nnn[nH]2)cc1)N(c1ncccc1Cl)[C@@H]1CCCNC1 [CLY-19],Area density of melanocytes,[1],0.006 ± 0.003
same,Area of melanocytes,[1],405.62 ± 73.45 um2
same,Average gray level (melanocyte depth),[1],0.45 ± 0.06
same,Average optical density (melanocyte depth),[1],11.28 ± 1.24
same,Integrated optical density (melanocyte depth),[1],102.65 ± 9.97
same,Number density of melanocytes,[1],2.18 ± 1.35
same,Number of melanocytes,[1],1.95 ± 0.52
same,number of rabbits with acne histological grading 2+,[2]; [4],3
same,number of rabbits with acne histological grading 2+,[2]; [5],1
same,number of rabbits with acne histological grading —,[2]; [4],5
same,number of rabbits with acne histological grading —,[2]; [5],8
same,number of rabbits with acne histological grading 1+,[2]; [4],2
same,number of rabbits with acne histological grading 1+,[2]; [5],1
same,number of rabbits with acne histological grading 3+,[2]; [4],0
same,number of rabbits with acne histological grading 3+,[2]; [5],0
same,epidermal thickness,[3]; [4],0.2365 ± 0.0181 mm
same,hair follicle area,[3]; [4],0.2766 ± 0.0953* mm^2
same,sebaceous gland diameter,[3]; [4],0.0795 ± 0.0398 mm
same,epidermal thickness,[3]; [5],0.2276 ± 0.0165 mm
same,hair follicle area,[3]; [5],0.2235 ± 0.0843* mm^2
same,sebaceous gland diameter,[3]; [5],0.0523 ± 0.0316 mm
NC1CCCC(N(C(=O)c2ccc(-n3nnc4cccnc43)cc2)c2ncccc2Cl)C1 (stereo not shown) [CLY-11],Area density of melanocytes,[1],0.006 ± 0.002
same,Area of melanocytes,[1],417.53 ± 73.16 um2
same,Average gray level (melanocyte depth),[1],0.46 ± 0.06
same,Average optical density (melanocyte depth),[1],11.26 ± 1.22
same,Integrated optical density (melanocyte depth),[1],101.38 ± 9.92
same,Number density of melanocytes,[1],2.16 ± 1.38
same,Number of melanocytes,[1],1.98 ± 0.56
same,number of rabbits with acne histological grading 2+,[2]; [4],2
same,number of rabbits with acne histological grading 2+,[2]; [5],1
same,number of rabbits with acne histological grading —,[2]; [4],5
same,number of rabbits with acne histological grading —,[2]; [5],7
same,number of rabbits with acne histological grading 1+,[2]; [4],3
same,number of rabbits with acne histological grading 1+,[2]; [5],2
same,number of rabbits with acne histological grading 3+,[2]; [4],0
same,number of rabbits with acne histological grading 3+,[2]; [5],0
same,epidermal thickness,[3]; [4],0.2372 ± 0.0176 mm
same,hair follicle area,[3]; [4],0.2745 ± 0.0946* mm^2
same,sebaceous gland diameter,[3]; [4],0.0786 ± 0.0392 mm
same,epidermal thickness,[3]; [5],0.2295 ± 0.0173 mm
same,hair follicle area,[3]; [5],0.2246 ± 0.0856* mm^2
same,sebaceous gland diameter,[3]; [5],0.0552 ± 0.0325 mm
COC1CCCC(N(C(=O)c2ccc(-n3nnc4cccnc43)cc2)c2ncccc2Cl)C1 (stereo not shown) [CLY-5],Area density of melanocytes,[1],0.004 ± 0.001
same,Area of melanocytes,[1],345.31 ± 56.21 um2
same,Average gray level (melanocyte depth),[1],0.40 ± 0.05
same,Average optical density (melanocyte depth),[1],10.59 ± 1.13
same,Integrated optical density (melanocyte depth),[1],107.06 ± 9.57
same,Number density of melanocytes,[1],1.75 ± 1.29
same,Number of melanocytes,[1],1.43 ± 0.32
